Reference: the NIST ThermoML archive (doi:10.1021/je0502546)
Numbers after ± are expanded uncertainties.

How the values were obtained:
[1] = xn = mol fraction of the nth substance listed; conditions: 101 kPa, Liquid; for viscosity: Capillary tube (Ostwald / Ubbelohde) method
[2] = refractive index (Na D-line) (dimensionless); xn = mol fraction of the nth substance listed; conditions: 101 kPa, Liquid, Standard Abbe refractometry

COc1ccccc1 [anisole] + Cc1ccccc1
Conditions	mass density, [1] [kg/m3]	refractive index, [2]	viscosity, [1] [mPa·s]
293.15 K, x1 = 0.0966	879.58 ± 0.3	1.4993 ± 0.0007	0.62 ± 0.006
293.15 K, x1 = 0.1954	892.47 ± 0.31	1.5016 ± 0.0007	0.656 ± 0.006
293.15 K, x1 = 0.2911	904.89 ± 0.32	1.5037 ± 0.0007	0.693 ± 0.006
293.15 K, x1 = 0.3936	918.06 ± 0.34	1.506 ± 0.0007	0.736 ± 0.007
293.15 K, x1 = 0.5043	932.17 ± 0.35	1.5083 ± 0.0007	0.787 ± 0.007
293.15 K, x1 = 0.5985	944.06 ± 0.37	1.5102 ± 0.0007	0.834 ± 0.007
293.15 K, x1 = 0.6995	956.7 ± 0.39	1.5122 ± 0.0007	0.89 ± 0.008
293.15 K, x1 = 0.7956	968.63 ± 0.4	1.514 ± 0.0007	0.947 ± 0.008
293.15 K, x1 = 0.8986	981.29 ± 0.42	1.5159 ± 0.0007	1.013 ± 0.009
293.15 K, x1 = 1	993.8 ± 0.44	1.5177 ± 0.0007	1.084 ± 0.01
303.15 K, x1 = 0.0966	870.21 ± 0.3	1.4936 ± 0.0007	0.549 ± 0.005
303.15 K, x1 = 0.1954	883.13 ± 0.31	1.4959 ± 0.0007	0.579 ± 0.005
303.15 K, x1 = 0.2911	895.55 ± 0.32	1.4981 ± 0.0007	0.61 ± 0.006
303.15 K, x1 = 0.3936	908.76 ± 0.34	1.5003 ± 0.0007	0.645 ± 0.006
303.15 K, x1 = 0.5043	922.89 ± 0.35	1.5027 ± 0.0007	0.687 ± 0.006
303.15 K, x1 = 0.5985	934.8 ± 0.37	1.5046 ± 0.0007	0.726 ± 0.007
303.15 K, x1 = 0.6995	947.44 ± 0.38	1.5067 ± 0.0007	0.772 ± 0.007
303.15 K, x1 = 0.7956	959.38 ± 0.4	1.5085 ± 0.0007	0.818 ± 0.007
303.15 K, x1 = 0.8986	972.06 ± 0.42	1.5105 ± 0.0007	0.872 ± 0.008
303.15 K, x1 = 1	984.37 ± 0.44	1.5124 ± 0.0007	0.931 ± 0.009
